Patent US20250115569A1, “SULFONAMIDE COMPOUNDS FOR THE TREATMENT OF NEUROLOGICAL CONDITIONS” (LARIO THERAPEUTICS LIMITED, priority 2021, published 2025)

Molecular target: Cav2.3 (Homo sapiens, UniProt Q15878)
Experiment: Human Cav2.3 channel calcium-influx assay
Assay type: cell-based
Details: Fluo8 fluorescence, HEK-293 T-Rex/Kir2.1/Cav2.3e cells, without pluronic acid, read-out: Cav2.3 (pIC50) (converted)
How it was run: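 Signal = peak fluorescence (5–130 s) minus baseline (1–2 s), normalized to neutral (0) and inhibitor (−100) controls as % effect. Depolarization used final 20 mM KCl, 130 mM NaCl, 2 mM CaCl2, after 3 min RT compound exposure (30 μM top, half-log, 8 points, 0.3% DMSO) in doxycycline-induced HEK-293 T-Rex/Kir2.1/Cav2.3e-β4-α2δ1 cells with Fluo8 NW.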

Chain of Cav2.3 (Q15878 whole entry, looked up): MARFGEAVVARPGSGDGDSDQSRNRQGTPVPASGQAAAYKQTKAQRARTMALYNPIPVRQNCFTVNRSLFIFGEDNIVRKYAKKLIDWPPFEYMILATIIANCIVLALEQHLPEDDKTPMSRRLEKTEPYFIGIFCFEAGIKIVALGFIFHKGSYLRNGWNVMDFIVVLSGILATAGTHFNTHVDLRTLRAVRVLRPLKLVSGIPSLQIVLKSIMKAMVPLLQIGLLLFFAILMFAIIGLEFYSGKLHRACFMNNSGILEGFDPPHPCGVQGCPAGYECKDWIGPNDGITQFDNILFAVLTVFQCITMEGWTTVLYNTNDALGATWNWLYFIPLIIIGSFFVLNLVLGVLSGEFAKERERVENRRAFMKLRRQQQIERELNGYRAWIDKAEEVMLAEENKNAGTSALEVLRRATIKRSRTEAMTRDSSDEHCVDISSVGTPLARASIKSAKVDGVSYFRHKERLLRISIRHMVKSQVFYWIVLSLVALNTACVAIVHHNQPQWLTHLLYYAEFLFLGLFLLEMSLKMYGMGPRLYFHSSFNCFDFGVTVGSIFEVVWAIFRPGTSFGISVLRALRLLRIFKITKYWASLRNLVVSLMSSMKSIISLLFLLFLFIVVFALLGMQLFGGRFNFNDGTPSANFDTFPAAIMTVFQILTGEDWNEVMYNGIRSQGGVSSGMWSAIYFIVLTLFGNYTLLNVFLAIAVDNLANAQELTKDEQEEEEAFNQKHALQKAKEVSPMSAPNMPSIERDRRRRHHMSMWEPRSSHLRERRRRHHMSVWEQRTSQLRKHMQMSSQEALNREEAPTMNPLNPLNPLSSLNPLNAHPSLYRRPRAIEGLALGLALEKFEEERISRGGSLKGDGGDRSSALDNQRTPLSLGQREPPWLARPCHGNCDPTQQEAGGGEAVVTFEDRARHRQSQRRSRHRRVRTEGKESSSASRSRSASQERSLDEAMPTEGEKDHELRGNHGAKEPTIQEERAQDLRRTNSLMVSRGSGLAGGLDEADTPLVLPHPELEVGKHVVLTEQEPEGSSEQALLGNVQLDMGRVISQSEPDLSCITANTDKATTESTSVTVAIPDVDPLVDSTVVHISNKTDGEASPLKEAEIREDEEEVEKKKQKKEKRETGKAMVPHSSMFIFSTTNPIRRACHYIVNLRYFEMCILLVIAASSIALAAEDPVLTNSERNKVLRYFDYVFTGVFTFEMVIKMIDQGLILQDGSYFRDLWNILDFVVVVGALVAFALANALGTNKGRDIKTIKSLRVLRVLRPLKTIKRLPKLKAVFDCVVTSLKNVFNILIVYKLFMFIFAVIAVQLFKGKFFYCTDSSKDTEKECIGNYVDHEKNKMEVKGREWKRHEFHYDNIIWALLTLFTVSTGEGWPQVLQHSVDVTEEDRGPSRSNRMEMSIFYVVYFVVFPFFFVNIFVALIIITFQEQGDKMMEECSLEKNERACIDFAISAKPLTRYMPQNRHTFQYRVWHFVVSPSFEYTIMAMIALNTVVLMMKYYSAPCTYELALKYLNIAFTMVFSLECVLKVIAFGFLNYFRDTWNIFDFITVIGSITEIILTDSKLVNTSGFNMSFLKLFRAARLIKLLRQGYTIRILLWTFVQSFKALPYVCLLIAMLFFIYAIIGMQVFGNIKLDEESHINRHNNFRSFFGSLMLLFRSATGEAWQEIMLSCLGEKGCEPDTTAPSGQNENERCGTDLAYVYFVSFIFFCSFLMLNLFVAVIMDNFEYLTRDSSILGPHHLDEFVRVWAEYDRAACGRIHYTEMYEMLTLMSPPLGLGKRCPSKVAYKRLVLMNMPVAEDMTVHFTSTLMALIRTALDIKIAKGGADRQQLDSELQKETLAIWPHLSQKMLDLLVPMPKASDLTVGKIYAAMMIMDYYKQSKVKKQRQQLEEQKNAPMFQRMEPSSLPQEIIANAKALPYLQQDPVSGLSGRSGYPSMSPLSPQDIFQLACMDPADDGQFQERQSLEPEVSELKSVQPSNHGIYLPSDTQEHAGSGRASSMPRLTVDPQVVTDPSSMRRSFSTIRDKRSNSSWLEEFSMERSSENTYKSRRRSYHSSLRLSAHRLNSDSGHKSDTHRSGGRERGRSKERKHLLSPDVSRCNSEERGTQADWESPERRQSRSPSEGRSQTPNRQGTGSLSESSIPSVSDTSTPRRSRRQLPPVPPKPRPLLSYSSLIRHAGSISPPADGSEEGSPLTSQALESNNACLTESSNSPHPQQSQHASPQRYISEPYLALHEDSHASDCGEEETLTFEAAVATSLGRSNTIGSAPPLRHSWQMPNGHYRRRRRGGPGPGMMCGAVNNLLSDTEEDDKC

SMILES	IC50 [nM]
N#Cc1cncc(S(=O)(=O)N(CCF)[C@H](c2ccc(F)cc2)C(F)(F)F)c1 [Example 66, (R)-5-cyano-N-(2-fluoroethyl)-N-(2,2,2-trifluoro-1-(4-fluorophenyl)ethyl)pyridine-3-sulfonamide]	40.7
CN(C(c1ccc(C(F)(F)F)cc1)C(F)(F)F)S(=O)(=O)c1cncc(C#N)c1 (stereo not shown) [Example 67, 5-Cyano-N-methyl-N-(2,2,2-trifluoro-1-(4-(trifluoromethyl)phenyl)ethyl)pyridine-3-sulfonamide]	107
CN([C@@H](c1ccc(C(F)(F)F)cc1)C(F)(F)F)S(=O)(=O)c1cncc(C#N)c1 [Example 69, (S)-5-Cyano-N-methyl-N-(2,2,2-trifluoro-1-(4-(trifluoromethyl)phenyl)ethyl)pyridine-3-sulfonamide]	5620
CCN(C(c1ccc(F)cc1)C(F)(F)F)S(=O)(=O)c1ncc(C#N)s1 (stereo not shown) [Example 80, 5-Cyano-N-ethyl-N-(2,2,2-trifluoro-1-(4-fluorophenyl)ethyl)thiazole-2-sulfonamide]	447
CCN(C(c1ccc(F)cc1)C(F)(F)F)S(=O)(=O)c1nccs1 (stereo not shown) [Example 81, N-ethyl-N-(2,2,2-trifluoro-1-(4-fluorophenyl)ethyl)thiazole-2-sulfonamide]	955
CCN(C(c1ccc(F)cc1)C(F)(F)F)S(=O)(=O)c1cnc(C#N)s1 (stereo not shown) [Example 82, 2-Cyano-N-ethyl-N-(2,2,2-trifluoro-1-(4-fluorophenyl)ethyl)thiazole-5-sulfonamide]	912
CCN([C@@H](c1ccc(F)cc1)C(F)(F)F)S(=O)(=O)c1cnc(C#N)s1 [Example 83, (S)-2-Cyano-N-ethyl-N-(2,2,2-trifluoro-1-(4-fluorophenyl)ethyl)thiazole-5-sulfonamide]	3800
CCN([C@H](c1ccc(F)cc1)C(F)(F)F)S(=O)(=O)c1cnc(C#N)s1 [Example 84]	871
CCN(C(c1ccc(F)cc1)C(F)(F)F)S(=O)(=O)c1cc(N2CCOCC2)cs1 (stereo not shown) [Example 92, N-ethyl-4-morpholino-N-(2,2,2-trifluoro-1-(4-fluorophenyl)ethyl)thiophene-2-sulfonamide]	1320
CCN(C(c1ccc(F)cc1)C(F)(F)F)S(=O)(=O)c1cncc(C2COC2)c1 (stereo not shown) [Example 99, N-ethyl-5-(oxetan-3-yl)-N-(2,2,2-trifluoro-1-(4-fluorophenyl)ethyl)pyridine-3-sulfonamide]	275
CCN(C(c1ccc(F)cc1)C(F)(F)F)S(=O)(=O)c1ccc(=O)n(C)c1 (stereo not shown) [Example 100, N-ethyl-1-methyl-6-oxo-N-(2,2,2-trifluoro-1-(4-fluorophenyl)ethyl)-1,6-dihydropyridine-3-sulfonamide]	380
CCN([C@H](c1ccc(F)cc1)C(F)(F)F)S(=O)(=O)c1ccc(=O)n(C)c1 [Example 101, (R)—N-ethyl-1-methyl-6-oxo-N-(2,2,2-trifluoro-1-(4-fluorophenyl)ethyl)-1,6-dihydropyridine-3-sulfonamide]	182
CCN([C@@H](c1ccc(F)cc1)C(F)(F)F)S(=O)(=O)c1ccc(=O)n(C)c1 [Example 102, (S)—N-ethyl-1-methyl-6-oxo-N-(2,2,2-trifluoro-1-(4-fluorophenyl)ethyl)-1,6-dihydropyridine-3-sulfonamide]	6760
CCN([C@@H](c1ccc(OC(F)(F)F)cc1)C(F)(F)F)S(=O)(=O)c1cncc(C#N)c1 [Example 118, (S)-5-Cyano-N-ethyl-N-(2,2,2-trifluoro-1-(4-(trifluoromethoxy)phenyl)ethyl)pyridine-3-sulfonamide]	5620
CCN([C@H](c1ccc(OC(F)(F)F)cc1)C(F)(F)F)S(=O)(=O)c1cncc(C#N)c1 [Example 119, (R)-5-Cyano-N-ethyl-N-(2,2,2-trifluoro-1-(4-(trifluoromethoxy)phenyl)ethyl)pyridine-3-sulfonamide]	87.1
CCN(C(c1ccc(F)cc1)C(F)(F)F)S(=O)(=O)c1cncc(C(C)=O)c1 (stereo not shown) [Example 120, 5-acetyl-N-ethyl-N-(2,2,2-trifluoro-1-(4-fluorophenyl)ethyl)pyridine-3-sulfonamide]	132
CCN(C(c1ccc(F)cc1)C(F)(F)F)S(=O)(=O)c1cnnc(OC)c1 (stereo not shown) [Example 121, N-ethyl-6-methoxy-N-(2,2,2-trifluoro-1-(4-fluorophenyl)ethyl)pyridazine-4-sulfonamide]	191
CCN([C@@H](c1ccc(F)cc1)C(F)(F)F)S(=O)(=O)c1cnnc(OC)c1 [Example 122, (S)—N-ethyl-6-methoxy-N-(2,2,2-trifluoro-1-(4-fluorophenyl)ethyl)pyridazine-4-sulfonamide]	7240
CCN([C@H](c1ccc(F)cc1)C(F)(F)F)S(=O)(=O)c1cnnc(OC)c1 [Example 123, (R)—N-ethyl-6-methoxy-N-(2,2,2-trifluoro-1-(4-fluorophenyl)ethyl)pyridazine-4-sulfonamide]	166

SMILES	IC50 [nM]
CCN([C@@H](c1ccc(OC)cc1)C(F)(F)F)S(=O)(=O)C1CCOCC1 [Example 126, (S)—N-ethyl-N-(2,2,2-trifluoro-1-(4-methoxyphenyl)ethyl)tetrahydro-2H-pyran-4-sulfonamide]	30200
CCN([C@H](c1ccc(OC)cc1)C(F)(F)F)S(=O)(=O)C1CCOCC1 [Example 127, (R)—N-ethyl-N-(2,2,2-trifluoro-1-(4-methoxyphenyl)ethyl)tetrahydro-2H-pyran-4-sulfonamide]	309
COc1ccc([C@H](N(C)S(=O)(=O)C2CCOCC2)C(F)(F)F)cc1 [Example 128, (S)—N-methyl-N-(2,2,2-trifluoro-1-(4-methoxyphenyl)ethyl)tetrahydro-2H-pyran-4-sulfonamide]	14100
COc1ccc([C@@H](N(C)S(=O)(=O)C2CCOCC2)C(F)(F)F)cc1 [Example 129, (R)—N-methyl-N-(2,2,2-trifluoro-1-(4-methoxyphenyl)ethyl)tetrahydro-2H-pyran-4-sulfonamide]	1170
CCN([C@H](c1ccc(F)cc1)C(F)(F)F)S(=O)(=O)c1ccn2ncnc2c1 [Example 137, (R)—N-ethyl-N-(2,2,2-trifluoro-1-(4-fluorophenyl)ethyl)-[1,2,4]triazolo[1,5-a]pyridine-7-sulfonamide]	72.4
CCN([C@H](c1ccc(F)cc1)C(F)(F)F)S(=O)(=O)c1cnc2[nH]ccc2n1 [Example 140, (R)—N-ethyl-N-(2,2,2-trifluoro-1-(4-fluorophenyl)ethyl)-5H-pyrrolo[2,3-b]pyrazine-2-sulfonamide]	562
CCN([C@H](c1ccc(F)cc1)C(F)(F)F)S(=O)(=O)c1cnc2c(C#N)cnn2c1 [Example 141, (R)-3-cyano-N-ethyl-N-(2,2,2-trifluoro-1-(4-fluorophenyl)ethyl)pyrazolo[1,5-a]pyrimidine-6-sulfonamide]	575
CCN([C@H](c1ccc(F)cc1)C(F)(F)F)S(=O)(=O)c1cn2ccccc2n1 [Example 142, (R)—N-ethyl-N-(2,2,2-trifluoro-1-(4-fluorophenyl)ethyl)imidazo[1,2-a]pyridine-2-sulfonamide]	1070
CCN([C@H](c1ccc(F)cc1)C(F)(F)F)S(=O)(=O)c1nc2ccccn2c1Cl [Example 143, (R)-3-chloro-N-ethyl-N-(2,2,2-trifluoro-1-(4-fluorophenyl)ethyl)imidazo[1,2-a]pyridine-2-sulfonamide]	4170
CCN([C@H](c1ccc(F)cc1)C(F)(F)F)S(=O)(=O)c1nc2cnccn2n1 [Example 144, (R)—N-ethyl-N-(2,2,2-trifluoro-1-(4-fluorophenyl)ethyl)-[1,2,4]triazolo[1,5-a]pyrazine-2-sulfonamide]	1780
CCN([C@H](c1ccc(F)cc1)C(F)(F)F)S(=O)(=O)c1ccn2nncc2c1 [Example 145, (R)—N-ethyl-N-(2,2,2-trifluoro-1-(4-fluorophenyl)ethyl)-[1,2,3]triazolo[1,5-a]pyridine-5-sulfonamide]	25.1
CCN([C@H](c1ccc(F)cc1)C(F)(F)F)S(=O)(=O)c1ccc2nccn2c1 [Example 146, (R)—N-ethyl-N-(2,2,2-trifluoro-1-(4-fluorophenyl)ethyl)imidazo[1,2-a]pyridine-6-sulfonamide]	17.4
CCN([C@H](c1ccc(F)cc1)C(F)(F)F)S(=O)(=O)c1cnc2nsnc2c1 [Example 147, (R)—N-ethyl-N-(2,2,2-trifluoro-1-(4-fluorophenyl)ethyl)-[1,2,5]thiadiazolo[3,4-b]pyridine-6-sulfonamide]	158
CCN([C@H](c1ccc(F)cc1)C(F)(F)F)S(=O)(=O)c1cc2ncccn2n1 [Example 148, (R)—N-ethyl-N-(2,2,2-trifluoro-1-(4-fluorophenyl)ethyl)pyrazolo[1,5-a]pyrimidine-2-sulfonamide]	692
CCN([C@H](c1ccc(F)cc1)C(F)(F)F)S(=O)(=O)c1cnc2ncsc2c1 [Example 151, (R)—N-ethyl-N-(2,2,2-trifluoro-1-(4-fluorophenyl)ethyl)thiazolo[4,5-b]pyridine-6-sulfonamide]	170
CCN([C@H](c1ccc(F)cc1)C(F)(F)F)S(=O)(=O)c1nc2ccccn2n1 [Example 153, (R)—N-ethyl-N-(2,2,2-trifluoro-1-(4-fluorophenyl)ethyl)-[1,2,4]triazolo[1,5-a]pyridine-2-sulfonamide]	1580
CCN([C@H](c1ccc(F)cc1)C(F)(F)F)S(=O)(=O)c1ccc2sc(N)nc2c1 [Example 155, (R)-2-amino-N-ethyl-N-(2,2,2-trifluoro-1-(4-fluorophenyl)ethyl)benzo[d]thiazole-5-sulfonamide]	1910
CCN([C@H](c1ccc(F)cc1)C(F)(F)F)S(=O)(=O)c1cnc2nc[nH]c2c1 [Example 156, (R)—N-ethyl-N-(2,2,2-trifluoro-1-(4-fluorophenyl)ethyl)-1H-imidazo[4,5-b]pyridine-6-sulfonamide]	204
